Measurements taken from patent publication US20250241308A1, “COMPOSITIONS AND METHODS FOR CONTROLLING PESTS” (PYRONE SYSTEMS, INC., priority 2022, published 2025).
Marks after values point to notes of the source that are not given here.

Legend:
[1] = system: Aedes aegypti Puerto Rican strain (pyrethroid-resistant); test: Topical application KD50 and LD50, pyrethroid-resistant strain
[2] = system: Aedes aegypti Orlando strain (pyrethroid-susceptible); test: Topical application KD50 and LD50, pyrethroid-susceptible strain
[3] = system: pyrethroid-susceptible (Orlando) strain of Aedes aegypti female adult mosquitoes; test: Spatial repellency, static air repellency chamber, Orlando strain; assay type: in vivo; conditions: for EC50 (spatial repellency): 1 hour after introducing treated filter papers
Procedure: Spatial repellency of pogostone was assessed on pyrethroid-susceptible (Orlando) and pyrethroid-resistant (Puerto Rico) strains of Aedes aegypti female adult mosquitoes. Repellency bioassays were performed using a static air repellency chamber, which has been described previously (Schultz, 2006; Peterson, 2018). Briefly, the repellency chamber consists of a clear glass cylinder 600 mm in length with an inner diameter of roughly 85 mm laying horizontally. One end of the cylinder is capped with an untreated 90-mm filter paper (Whatman No. 1) contained in a 90-mm inner diameter glass petri dish, and sealed with tape to remain closed. The other end is capped in the same manner, except the filter paper has been treated with 1 mL of a 0.5% (w/v) solution of a monoterpenoid ester in acetone, resulting in 78.6 μg/cm^2 of repellent on the filter paper. The solution was added to the filter paper evenly and at a rate such that the evaporation of acetone prevents loss of compound from dripping, and the acetone was allowed to evaporate at room temperature for a further 10 minutes before use for the short-term repellency assay, or for an additional five hours under open air in ambient conditions in the case of long-term repellency studies. Shortly after placing the filter papers on the end of the tube, twenty (not blood fed) female […] mosquitoes were anesthetized with carbon dioxide, and placed into the tube via a 20-mm hole halfway down the length of the tube, and the hole was sealed. This process is performed with as little disturbance to the air in the tube as possible. The distribution of mosquitoes between the treated and untreated sides was then noted at 15, 30, 60, 90, 120, and 150 minutes after placement into the tube. Repellency ratio of Orlando or Puerto Rico mosquitoes was recorded as a proportion of the number of mosquitoes on the treated side of the tube compared to the whole tube [number of treated side/total number throughout entire tube] at 1 hour after introducing the treated filter papers.

[4] = system: Aedes aegypti adult female mosquitoes; test: LD50 of insecticides alone and in combination with sublethal pogostone; assay type: in vivo; conditions: for Synergism Ratio: LD50 of insecticide alone / LD50 of insecticide in combination with pogostone; for LD50: insecticide alone or with pogostone at sublethal dosage, pogostone effect corrected with Abbott's formula
From the text: The dashed line indicates sublethal dosage of pogostone used for synergist experiments in Example 2.
Synergism ratios are presented as the ratio of the LD50 of insecticide alone and the LD50 of insecticide applied in combination with pogostone. The insecticidal effect of pogostone alone is corrected for using Abbott's formula (Equation 1) in all treatments using pogostone.

[5] = system: house fly strain CAR21 (S); test: Median lethal dose determination, house fly CAR21; assay type: in vivo
Procedure: (§1) 24-hour median lethal dose determinations of pogostone and permethrin were performed in three house fly strains and one stable fly strain. The KS17 resistant strain below is simultaneously resistant to organophosphates, carbamates, and synthetic pyrethroids.
(§2) 48-hour median lethal dose determinations of pogostone and permethrin were performed in three house fly strains. The KS17 resistant strain below is simultaneously resistant to organophosphates, carbamates, and synthetic pyrethroids.

house fly strain WHF (R) = test: Median lethal dose determination, house fly WHF; assay type: in vivo; conditions: for LD50: WHF (R); for RR (resistance ratio): WHF (R) LD50 divided by susceptible strain LD50
Procedure: as §1, §2

[6] = system: house fly strain KS17 (R); test: Median lethal dose determination, house fly KS17; assay type: in vivo; conditions: for LD50: KS17 (R); for RR (resistance ratio): KS17 (R) LD50 divided by susceptible strain LD50, NS = not significantly different
Procedure: as §1, §2

Stable flies (S) = test: Median lethal dose determination, stable fly; assay type: in vivo; conditions: 24-hour
Procedure: as §1

[7] = system: pyrethroid-resistant (Puerto Rico) strain of Aedes aegypti female adult mosquitoes; test: Spatial repellency, static air repellency chamber, Puerto Rico strain; assay type: in vivo
Procedure: Spatial repellency of pogostone was assessed on pyrethroid-susceptible (Orlando) and pyrethroid-resistant (Puerto Rico) strains of Aedes aegypti female adult mosquitoes. Repellency bioassays were performed using a static air repellency chamber, which has been described previously (Schultz, 2006; Peterson, 2018). Briefly, the repellency chamber consists of a clear glass cylinder 600 mm in length with an inner diameter of roughly 85 mm laying horizontally. One end of the cylinder is capped with an untreated 90-mm filter paper (Whatman No. 1) contained in a 90-mm inner diameter glass petri dish, and sealed with tape to remain closed. The other end is capped in the same manner, except the filter paper has been treated with 1 mL of a 0.5% (w/v) solution of a monoterpenoid ester in acetone, resulting in 78.6 μg/cm^2 of repellent on the filter paper. […] Repellency ratio of Orlando or Puerto Rico mosquitoes was recorded as a proportion of the number of mosquitoes on the treated side of the tube compared to the whole tube [number of treated side/total number throughout entire tube] at 1 hour after introducing the treated filter papers.

Row | SMILES | KD50 [1] [ng/mg] | LD50 [1] [ng/mg] | KD50 [2] [ng/mg] | LD50 [2] [ng/mg] | EC50 (spatial repellency) [3] | Synergism Ratio [4] | LD50 [4] [ng/mg] | LD50 ([5]; 24-hour) | LD50 ([5]; 48-hour) | LD50 (house fly strain WHF (R); 24-hour) | RR (resistance ratio) (house fly strain WHF (R); 24-hour) | LD50 (house fly strain WHF (R); 48-hour) | RR (resistance ratio) (house fly strain WHF (R); 48-hour) | LD50 ([6]; 24-hour) | LD50 ([6]; 48-hour) | LD50 (Stable flies (S)) [ng/fly] | other results
1 | Clc1ccc(C(c2ccc(Cl)cc2)C(Cl)(Cl)Cl)cc1 [DDT] | 350 | 530 | 9.5 | 9.6 |  |  |  |  |  |  |  |  |  |  |  |  | 
2 | CCN(CC)C(=O)c1cccc(C)c1 [DEET] |  |  |  |  | approximately 10 μg/cm^2 |  |  |  |  |  |  |  |  |  |  |  | 
3 | CN/C(=N/CC1CCOC1)N[N+](=O)[O-] (stereo not shown) [Dinotefuran] |  |  |  |  |  | 6.0* | 12.7 |  |  |  |  |  |  |  |  |  | 
4 | CC1(C)C(C=C(Cl)Cl)C1C(=O)OCc1cccc(Oc2ccccc2)c1 (stereo not shown) [Permethrin] |  |  |  |  |  | 2.6* | 0.37 | 15.4 ng/fly | 14.5 ng/fly | 1,100 ng/fly | 71.5 | 894 ng/fly | 61.7 | >5000 ng/fly | >5,000 ng/fly | 1.81 | RR (resistance ratio) ([6]; 24-hour): 325.1; RR (resistance ratio) ([6]; 48-hour): 344.8
5 | Cc1cc(O)c(C(=O)CCC(C)C)c(=O)o1 [pogostone] | 14 | 70 | 11 | 96 | 3.6 μg/cm^2 |  |  | 7,600 ng/fly | 6,800 ng/fly | 13,900 ng/fly | 1.8 | 9,900 ng/fly | 1.5 | 10,700 ng/fly | 6,890 ng/fly | 540 | spatial repellency (in words) ([3]; FIG. 2): considerably repellent; EC50 (spatial repellency) ([7]; 1 hour after introducing treated filter papers): 2.5 μg/cm^2; spatial repellency (in words) ([7]; FIG. 2): considerably repellent
